Measurements as given in patent publication US11076594B2, “Pyrazolone compound or salt thereof, preparation method therefor, herbicide composition and use thereof” (QINGDAO KINGAGROOT CHEMICAL COMPOUNDS CO., LTD., priority 2015, dated 2021).

What was measured:
Type in all cases: in vivo
Indian mallow = experiment: weed control effect in post-emergence stage (Table 1); parameters: key: Level 10: completely dead; Level 9: above 95% growth control rate; Level 8: above 90% growth control rate; Level 7: above 80% growth control rate; Level 6: above 70% growth control rate; Level 5: above 60% growth control rate; Level 4: above 50% growth control rate; Level 3: above 20% growth control rate; Level 2: 5%-20% growth control rate; Level 1: below 5% growth control rate; conditions: post-emergence spray at 4-5 leaf stage, 250 g/ha active ingredient with 450 kg/ha water, rated after 3 weeks in greenhouse
Procedure, shortened: (§1)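 Fresh-weight-based growth control rate was assessed 3 weeks after spraying. Test compound, dissolved in acetone, with tween 80 added and diluted in water, was sprayed onto greenhouse-grown, pot-cultured weeds and crop plants at 4-5 leaves, 2-3 weeks post-sowing.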

bidens bipinnata = experiment: as above; parameters: key: Level 10: completely dead; Level 9: above 95% growth control rate; Level 8: above 90% growth control rate; Level 7: above 80% growth control rate; Level 6: above 70% growth control rate; Level 5: above 60% growth control rate; Level 4: above 50% growth control rate; Level 3: above 20% growth control rate; Level 2: 5%-20% growth control rate; Level 1: below 5% growth control rate; conditions: post-emergence spray at 4-5 leaf stage, 250 g/ha active ingredient with 450 kg/ha water, rated after 3 weeks in greenhouse
Procedure, shortened: as §1

crab grass = experiment: as above; parameters: key: Level 10: completely dead; Level 9: above 95% growth control rate; Level 8: above 90% growth control rate; Level 7: above 80% growth control rate; Level 6: above 70% growth control rate; Level 5: above 60% growth control rate; Level 4: above 50% growth control rate; Level 3: above 20% growth control rate; Level 2: 5%-20% growth control rate; Level 1: below 5% growth control rate; conditions: post-emergence spray at 4-5 leaf stage, 250 g/ha active ingredient with 450 kg/ha water, rated after 3 weeks in greenhouse
Procedure, shortened: as §1

echinochloa = experiment: as above; parameters: key: Level 10: completely dead; Level 9: above 95% growth control rate; Level 8: above 90% growth control rate; Level 7: above 80% growth control rate; Level 6: above 70% growth control rate; Level 5: above 60% growth control rate; Level 4: above 50% growth control rate; Level 3: above 20% growth control rate; Level 2: 5%-20% growth control rate; Level 1: below 5% growth control rate; conditions: post-emergence spray at 4-5 leaf stage, 250 g/ha active ingredient with 450 kg/ha water, rated after 3 weeks in greenhouse
Procedure, shortened: as §1

foxtail = experiment: as above; parameters: key: Level 10: completely dead; Level 9: above 95% growth control rate; Level 8: above 90% growth control rate; Level 7: above 80% growth control rate; Level 6: above 70% growth control rate; Level 5: above 60% growth control rate; Level 4: above 50% growth control rate; Level 3: above 20% growth control rate; Level 2: 5%-20% growth control rate; Level 1: below 5% growth control rate; conditions: post-emergence spray at 4-5 leaf stage, 250 g/ha active ingredient with 450 kg/ha water, rated after 3 weeks in greenhouse
Procedure, shortened: as §1

rorippa indica = experiment: as above; parameters: key: Level 10: completely dead; Level 9: above 95% growth control rate; Level 8: above 90% growth control rate; Level 7: above 80% growth control rate; Level 6: above 70% growth control rate; Level 5: above 60% growth control rate; Level 4: above 50% growth control rate; Level 3: above 20% growth control rate; Level 2: 5%-20% growth control rate; Level 1: below 5% growth control rate; conditions: post-emergence spray at 4-5 leaf stage, 250 g/ha active ingredient with 450 kg/ha water, rated after 3 weeks in greenhouse
Procedure, shortened: as §1

corn = experiment: post-emergence stage experiment, crop (Table 1); conditions: post-emergence spray at 4-5 leaf stage, 250 g/ha active ingredient with 450 kg/ha water, rated after 3 weeks in greenhouse
Procedure, shortened: as §1

wheat [1] = experiment: post-emergence stage experiment, crop (Table 1); conditions: post-emergence spray at 4-5 leaf stage, 250 g/ha active ingredient with 450 kg/ha water, rated after 3 weeks in greenhouse
Procedure, shortened: as §1

rice = experiment: post-emergence stage experiment, crop (Table 1); parameters: key: Level 10: completely dead; Level 9: above 95% growth control rate; Level 8: above 90% growth control rate; Level 7: above 80% growth control rate; Level 6: above 70% growth control rate; Level 5: above 60% growth control rate; Level 4: above 50% growth control rate; Level 3: above 20% growth control rate; Level 2: 5%-20% growth control rate; Level 1: below 5% growth control rate; conditions: post-emergence spray at 4-5 leaf stage, 250 g/ha active ingredient with 450 kg/ha water, rated after 3 weeks in greenhouse
Procedure, shortened: as §1

wheat [2] = experiment: wheat field test, crop selectivity, greenhouse spray at 4 leaf stage; conditions: 250 g/ha of the active substance; 4 weeks after treatment
Procedure, shortened: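 Read-out: fresh weight control rate, scored 4 weeks after a post-emergence spray. Treatment at 4 leaf stage (2-3 weeks after sowing); compound dissolved in acetone, with methyl oleate emulsion, diluted with water.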

chickweed = experiment: wheat field resistant broadleaf weed control, greenhouse spray at 4 leaf stage; parameters: key: Level 10: completely dead; Level 9: above 95% growth control rate; Level 8: above 90% growth control rate; Level 7: above 80% growth control rate; Level 6: above 70% growth control rate; Level 5: above 60% growth control rate; Level 4: above 50% growth control rate; Level 3: above 20% growth control rate; Level 2: 5%-20% growth control rate; Level 1: below 5% growth control rate; conditions: 250 g/ha of the active substance; 4 weeks after treatment; ALS inhibitor resistant
Procedure, shortened: (§2)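 Scored as fresh weight control rate 4 weeks after treatment: greenhouse-grown weeds at 4 leaf stage (2–3 weeks after sowing) received a spray of test compound dissolved in acetone, mixed with methyl oleate emulsion and water-diluted.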

corn gromwell = experiment: as above; parameters: key: Level 10: completely dead; Level 9: above 95% growth control rate; Level 8: above 90% growth control rate; Level 7: above 80% growth control rate; Level 6: above 70% growth control rate; Level 5: above 60% growth control rate; Level 4: above 50% growth control rate; Level 3: above 20% growth control rate; Level 2: 5%-20% growth control rate; Level 1: below 5% growth control rate; conditions: 250 g/ha of the active substance; 4 weeks after treatment; ALS inhibitor resistant
Procedure, shortened: as §2

flixweed = experiment: as above; parameters: key: Level 10: completely dead; Level 9: above 95% growth control rate; Level 8: above 90% growth control rate; Level 7: above 80% growth control rate; Level 6: above 70% growth control rate; Level 5: above 60% growth control rate; Level 4: above 50% growth control rate; Level 3: above 20% growth control rate; Level 2: 5%-20% growth control rate; Level 1: below 5% growth control rate; conditions: 250 g/ha of the active substance; 4 weeks after treatment; ALS inhibitor resistant
Procedure, shortened: as §2

shepherd's purse = experiment: as above; parameters: key: Level 10: completely dead; Level 9: above 95% growth control rate; Level 8: above 90% growth control rate; Level 7: above 80% growth control rate; Level 6: above 70% growth control rate; Level 5: above 60% growth control rate; Level 4: above 50% growth control rate; Level 3: above 20% growth control rate; Level 2: 5%-20% growth control rate; Level 1: below 5% growth control rate; conditions: 250 g/ha of the active substance; 4 weeks after treatment; ALS inhibitor resistant
Procedure, shortened: as §2

In the case of CCn1nc(C)c(C(=O)c2ccc(C(F)(F)F)c(-n3cc(C)cn3)c2Cl)c1O [Compound 138], the “weed control effect, Indian mallow (level)” value (Indian mallow) was 0, the “weed control effect, Bidens bipinnata (level)” value (bidens bipinnata) was 5 (Level 5: above 60% growth control rate) and the “weed control effect, Crab grass (level)” value (crab grass) was 5 (Level 5: above 60% growth control rate). The “weed control effect, Echinochloa (level)” value (echinochloa) was 10, the “weed control effect, Green foxtail (level)” value (foxtail) was 10 and the “weed control effect, Rorippa indica (level)” value (rorippa indica) was 10. The “effect on crop, Corn (level)” value (corn) was 2 (Level 2: 5%-20% growth control rate), the “effect on crop, Wheat (level)” value (wheat [1]) was 1 (Level 1: below 5% growth control rate) and the “effect on crop, Rice (level)” value (rice) was 7 (Level 7: above 80% growth control rate). For the same molecule, the “Wheat (activity level, crop damage)” value (wheat [2]) was 1 (Level 1: below 5% growth control rate), the “chickweed weed controlling effect (activity level)” value (shortened to “chickweed weed controlling effect”) (chickweed) was 10 and the “corn gromwell weed controlling effect (activity level)” value (shortened to “corn gromwell weed controlling effect”) (corn gromwell) was 10. The “flixweed weed controlling effect (activity level)” value (shortened to “flixweed weed controlling effect”) (flixweed) was 10 and the “shepherd's purse weed controlling effect (activity level)” value (shepherd's purse) was 10.

In the case of Cc1nn(C)cc1C(=O)Oc1c(C(=O)c2ccc(C(F)(F)F)c(N3CCCCCC3=O)c2Cl)cnn1C [Compound 052], the “weed control effect, Indian mallow (level)” value (Indian mallow) was 10, the “weed control effect, Bidens bipinnata (level)” value (bidens bipinnata) was 1 (Level 1: below 5% growth control rate) and the “weed control effect, Crab grass (level)” value (crab grass) was 4 (Level 4: above 50% growth control rate). The “weed control effect, Echinochloa (level)” value (echinochloa) was 5 (Level 5: above 60% growth control rate), the “weed control effect, Green foxtail (level)” value (foxtail) was 1 (Level 1: below 5% growth control rate) and the “weed control effect, Rorippa indica (level)” value (rorippa indica) was 10. For the same molecule, the “effect on crop, Corn (level)” value (corn) was 1 (Level 1: below 5% growth control rate), the “effect on crop, Wheat (level)” value (wheat [1]) was 0 and the “effect on crop, Rice (level)” value (rice) was 1 (Level 1: below 5% growth control rate). For the same molecule, the “Wheat (activity level, crop damage)” value (wheat [2]) was 0, the “chickweed weed controlling effect” value (chickweed) was 10 and the “corn gromwell weed controlling effect” value (corn gromwell) was 10. The “flixweed weed controlling effect” value (flixweed) was 10 and the “shepherd's purse weed controlling effect (activity level)” value (shepherd's purse) was 10.

CCc1nn(C)c(OC(=O)c2cn(C)nc2C)c1C(=O)c1ccc(C(F)(F)F)c(-n2cc(C)cn2)c1Cl [Compound 141] was tested, and the “weed control effect, Indian mallow (level)” value (Indian mallow) was 9 (Level 9: above 95% growth control rate), the “weed control effect, Bidens bipinnata (level)” value (bidens bipinnata) was 7 (Level 7: above 80% growth control rate) and the “weed control effect, Crab grass (level)” value (crab grass) was 3 (Level 3: above 20% growth control rate). For the same molecule, the “weed control effect, Echinochloa (level)” value (echinochloa) was 9 (Level 9: above 95% growth control rate), the “weed control effect, Green foxtail (level)” value (foxtail) was 7 (Level 7: above 80% growth control rate) and the “weed control effect, Rorippa indica (level)” value (rorippa indica) was 10. For the same molecule, the “effect on crop, Corn (level)” value (corn) was 0, the “effect on crop, Wheat (level)” value (wheat [1]) was 1 (Level 1: below 5% growth control rate) and the “effect on crop, Rice (level)” value (rice) was 10. The “Wheat (activity level, crop damage)” value (wheat [2]) was 1 (Level 1: below 5% growth control rate), the “chickweed weed controlling effect” value (chickweed) was 10 and the “corn gromwell weed controlling effect” value (corn gromwell) was 10. For the same molecule, the “flixweed weed controlling effect” value (flixweed) was 10 and the “shepherd's purse weed controlling effect (activity level)” value (shepherd's purse) was 10.

Cc1cnn(-c2c(C(F)(F)F)ccc(C(=O)c3cnn(C)c3OC(=O)c3cn(C)nc3C)c2Cl)c1 [Compound 082] was tested, and the “weed control effect, Indian mallow (level)” value (Indian mallow) was 9 (Level 9: above 95% growth control rate), the “weed control effect, Bidens bipinnata (level)” value (bidens bipinnata) was 4 (Level 4: above 50% growth control rate) and the “weed control effect, Crab grass (level)” value (crab grass) was 6 (Level 6: above 70% growth control rate). For the same molecule, the “weed control effect, Echinochloa (level)” value (echinochloa) was 10, the “weed control effect, Green foxtail (level)” value (foxtail) was 10 and the “weed control effect, Rorippa indica (level)” value (rorippa indica) was 10. The “effect on crop, Corn (level)” value (corn) was 3 (Level 3: above 20% growth control rate), the “effect on crop, Wheat (level)” value (wheat [1]) was 0 and the “effect on crop, Rice (level)” value (rice) was 3 (Level 3: above 20% growth control rate). For the same molecule, the “Wheat (activity level, crop damage)” value (wheat [2]) was 0, the “chickweed weed controlling effect” value (chickweed) was 10 and the “corn gromwell weed controlling effect” value (corn gromwell) was 10. For the same molecule, the “flixweed weed controlling effect” value (flixweed) was 10 and the “shepherd's purse weed controlling effect (activity level)” value (shepherd's purse) was 10.
